Data set [1] can be described thus: Prodrug in vitro metabolism, rat plasma. In kind it is in vitro ADME. As to conditions: 2.0 μM substrate, no cofactors, 37° C. As for the experimental part:
(§1) The stabilities of prodrugs were evaluated in one or more in vitro systems using a variety of preparations following methods known in the art. Tissues and/or preparations were obtained from commercial sources (e.g., Pel-Freez Biologicals, Rogers, Ark., or GenTest Corporation, Woburn, Mass.). Experimental conditions used for the in vitro studies are described in Table 1. Each preparation was incubated with test compound at 37° C. for one hour. Aliquots (50 μL) were removed at 0, 30, and 60 min and quenched with 0.1% trifluoroacetic acid in acetonitrile. Samples were then centrifuged and analyzed by LC/MS/MS. Stability of prodrugs towards specific enzymes (e.g., peptidases, etc.) were also assessed in vitro by incubation with the purified enzyme: […]

A short description of data set [2]: Prodrug in vitro metabolism, human plasma. The data set is classed as in vitro ADME. As to conditions: 2.0 μM substrate, no cofactors, 37° C. As for the experimental part:
as §1

Data set [3] can be described thus: Prodrug in vitro metabolism, rat liver S9. To be noted: Rat Liver S9 (0.5 mg/mL), 2.0 μM substrate, NADPH, 37° C. In kind it is in vitro ADME. On the procedure: as §1
The nature of data set [4]: Prodrug in vitro metabolism, human liver S9. In kind it is in vitro ADME. As to conditions: Human Liver S9 (0.5 mg/mL), 2.0 μM substrate, NADPH, 37° C. On the procedure: as §1
The nature of data set [5]: Caco-2 homogenate S9 stability. The data set is classed as in vitro ADME. As to conditions: Caco-2 S9 (0.5 mg protein per mL), 5 μM prodrug, 37° C. On the procedure: Caco-2 Homogenate S9 Stability: Caco-2 cells were grown for 21 days prior to harvesting. Culture medium was removed and cell monolayers were rinsed and scraped off into ice-cold 10 mM sodium phosphate/0.15 M potassium chloride, pH 7.4. Cells were lysed by sonication at 4° C. using a probe sonicator. Lysed cells were then transferred into 1.5 mL centrifuge vials and centrifuged at 9000 g for 20 min at 4° C. The resulting supernatant (Caco-2 cell homogenate S9 fraction) was aliquoted into 0.5 mL vials and stored at −80° C. until used.
For stability studies, prodrug (5 μM) was incubated in Caco-2 homogenate S9 fraction (0.5 mg protein per mL) for 60 min at 37° C. Concentrations of intact prodrug and released parent drug were determined at zero time and 60 minutes using LC/MS/MS.

Data set [6] has as its system pancreatin. The experiment in a line: Pancreatin stability. The data set is classed as in vitro ADME, porcine. To be noted: 1% (w/v) pancreatin, 5 μM prodrug, pH 7.5, 37° C. As for the experimental part:
The stabilities of prodrugs were evaluated in one or more in vitro systems using a variety of preparations following methods known in the art. Tissues and/or preparations were obtained from commercial sources (e.g., Pel-Freez Biologicals, Rogers, Ark., or GenTest Corporation, Woburn, Mass.). Experimental conditions used for the in vitro studies are described in Table 1. Each preparation was incubated with test compound at 37° C. for one hour. Aliquots (50 μL) were removed at 0, 30, and 60 min and quenched with 0.1% trifluoroacetic acid in acetonitrile. Samples were then centrifuged and analyzed by LC/MS/MS. Stability of prodrugs towards specific enzymes (e.g., peptidases, etc.) were also assessed in vitro by incubation with the purified enzyme:
Pancreatin Stability: Stability studies were conducted by incubating prodrug (5 μM) with 1% (w/v) pancreatin (Sigma, P-1625, from porcine pancreas) in 0.025 M Tris buffer containing 0.5 M NaCl (pH 7.5) at 37° C. for 60 min. The reaction was stopped by addition of 2 volumes of methanol. After centrifugation at 14,000 rpm for 10 min, the supernatant was removed and analyzed by LC/MS/MS.

The conditions of data set [7]: animal models (Merino et al.); cited from earlier work.

The source of these data is patent US7935686B2, “Acyloxyalkyl carbamate prodrugs, methods of synthesis, and use” (XenoPort, Inc., priority 2004, dated 2011).

In the case of `CC(OC(=O)NCCCP(C)(=O)O)OC(=O)C1CCCCC1` (stereo not shown) [Compound 114, 3-{[1-Cyclohexanoyloxyethoxy]carbonylamino}propyl Methylphosphinic Acid], the “Percent of Prodrug Remaining after 60 min.” value (shortened to “Percent of Prodrug Remaining”) in data set [1] came to 98%; in data set [2], 97%; in data set [3], 51%; in data set [4], 43%; in data set [5], 82%; in data set [6], 24%.
With `CP(=O)(O)CCCNC(=O)OCOC(=O)c1ccccc1` [Compound 195, 3-{[Benzoyloxymethoxy]carbonylamino}propyl Methylphosphinic Acid], the “Percent of Prodrug Remaining” value in data set [1] came out at 100%; in data set [2], 78%; in data set [3] it was 85%; in data set [4], 64%; in data set [5], 91%; in data set [6], 62%.
Take `NCC(CC(=O)O)c1ccc(Cl)cc1` (racemic) [Baclofen, (±)-4-Amino-3-(4-chlorophenyl)butanoic acid]: the “absorption following administration into the colon” value in data set [7] is given as “poorly absorbed”.
With `CC(OC(=O)NCCCP(C)(=O)O)OC(=O)C(C)C` (stereo not shown) [Compound 111, 3-{[1-Isobutanoyloxyethoxy]carbonylamino}propyl Methylphosphinic Acid], the “Percent of Prodrug Remaining” value is given as 40% in data set [1]; 84% in data set [2]; 82% in data set [3]; 81% in data set [4]; 82% in data set [5]; 79% in data set [6].
`CC(C)C(=O)OC(OC(=O)NCCCP(C)(=O)O)C(C)C` (stereo not shown) [Compound 194, 3-{[1-Isobutanoyloxyisobutoxy]carbonylamino}propyl Methylphosphinic Acid]: the “Percent of Prodrug Remaining” value in data set [1] stood at 38%; in data set [2], 77%; in data set [3], 63%; in data set [4], 66%; in data set [5], 71%; in data set [6], 91%.
For `CC(C)C(=O)OCOC(=O)NCCCP(C)(=O)O` [Compound 115, 3-{[Isobutanoyloxymethoxy]carbonylamino}propyl Methylphosphinic Acid], the “Percent of Prodrug Remaining” value in data set [1] was 7%; in data set [2] it was 30%; in data set [3] it was 67%; in data set [4], 57%; in data set [5], 20%; in data set [6], 20%.
